Assays:
[1] = Cytotoxicity against C2C12 cells assessed as cell viability at 200 ug/ml after 24 hrs by MTT method; format: cell-based; details: read-out: Activity
[2] = tested on: C2C12; assay: Cytotoxicity against C2C12 cells assessed as cell viability upto 30 ug/ml after 24 hrs by MTT method; format: cell-based; details: c2c12, 24 h
[3] = Cytotoxicity against HEPG2 cells assessed as cell viability at 200 ug/ml by MTT method; format: cell-based; details: human, read-out: Activity
[4] = Cytotoxicity against C2C12 cells assessed as cell viability at 200 ug/ml by MTT method; format: cell-based, Homo sapiens; details: read-out: Activity
[5] = Cytotoxicity against HEPG2 cells assessed as cell viability at 200 ug/ml after 24 hrs by MTT method; format: cell-based; details: human, read-out: Activity

CCCCCC(=O)OCCN(CCOC(=O)CCN(CCC(=O)OC)CCN1CCC(=O)OCCCN2CCOC(=O)CCN(CCC(=O)OCCN(CCOC(=O)CCCCC)C(COC(=O)CCCCC)(COC(=O)CCCCC)COC(=O)CCN3CCC(=O)OCC2(CO)COC(=O)CCN(CCN(CCC(=O)OC)CCC(=O)OCC(COC(=O)CCCCC)(COC(=O)CCCCC)N(CCOC(=O)CCCCC)CCOC(=O)CCCCC)CCC(=O)OCCN(C(CO)(COC(=O)CCCCC)COC(=O)CCCCC)CCOC(=O)CCN(CCC(=O)OCC(COC(=O)CCCCC)(COC(=O)CCCCC)N(CCOC(=O)CCCCC)CCOC(=O)CCCCC)CC3)CCN(CCC(=O)OC)CC(=O)OCCN(CCOC(=O)CCCCC)C(CO)(COC(=O)CCCCC)COC(=O)CC1)C(CO)(COC(=O)CCCCC)COC(=O)CCCCC (stereo not given)
viability at 24 h, 200 ug/ml [1]: 85%
Activity [2]: Non-toxic
viability at 200 ug/ml [3]: 82%
viability at 200 ug/ml [4]: 73%
viability at 24 h, 200 ug/ml [5]: 87%
